Results taken from PubChem BioAssay (NCI).
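Values below derive from 48-hour exposures of cells grown in 96-well plates, with endpoints linearly interpolated between the two concentrations bracketing the appropriate inhibition level. At the TGI there is no net growth.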

How the values were obtained:
Assay in all cases: NCI tumour cell line growth inhibition, 48 h
KM12 colon = system: KM12 colon
RPMI-8226 leukemia = system: RPMI-8226 leukemia
CAKI-1 renal = system: CAKI-1 renal
SNB-75 CNS = system: SNB-75 CNS
OVCAR-3 ovarian = system: OVCAR-3 ovarian
MDA-MB-435 = system: MDA-MB-435
HT29 colon = system: HT29 colon
ACHN renal = system: ACHN renal
MALME-3M melanoma = system: MALME-3M melanoma
SK-OV-3 ovarian = system: SK-OV-3 ovarian
NCI-H522 lung = system: NCI-H522 lung
SNB-19 CNS = system: SNB-19 CNS
786-0 renal = system: 786-0 renal
NCI/ADR-RES ovarian = system: NCI/ADR-RES ovarian
T-47D breast = system: T-47D breast
RXF 393 renal = system: RXF 393 renal
COLO 205 colon = system: COLO 205 colon
NCI-H460 lung = system: NCI-H460 lung
HCT-116 colon = system: HCT-116 colon
SF-539 CNS = system: SF-539 CNS
U251 CNS = system: U251 CNS
HCT-15 colon = system: HCT-15 colon
LOX IMVI melanoma = system: LOX IMVI melanoma
MDA-N = system: MDA-N
K-562 leukemia = system: K-562 leukemia
BT-549 breast = system: BT-549 breast
EKVX NSCLC = system: EKVX NSCLC
M14 melanoma = system: M14 melanoma
PC-3 prostate = system: PC-3 prostate
SK-MEL-5 melanoma = system: SK-MEL-5 melanoma
TK-10 renal = system: TK-10 renal
UACC-257 melanoma = system: UACC-257 melanoma
SK-MEL-2 melanoma = system: SK-MEL-2 melanoma
UACC-62 melanoma = system: UACC-62 melanoma
OVCAR-5 ovarian = system: OVCAR-5 ovarian
SK-MEL-28 melanoma = system: SK-MEL-28 melanoma
UO-31 renal = system: UO-31 renal
A549 NSCLC = system: A549 NSCLC
SF-295 CNS = system: SF-295 CNS
SF-268 CNS = system: SF-268 CNS
SW-620 colon = system: SW-620 colon
OVCAR-8 ovarian = system: OVCAR-8 ovarian
NCI-H23 lung = system: NCI-H23 lung
CCRF-CEM leukemia = system: CCRF-CEM leukemia
HS 578T breast = system: HS 578T breast
DU-145 prostate = system: DU-145 prostate
HCC-2998 colon = system: HCC-2998 colon
HOP-62 NSCLC = system: HOP-62 NSCLC
OVCAR-4 ovarian = system: OVCAR-4 ovarian
MDA-MB-231 breast = system: MDA-MB-231 breast
MCF7 breast = system: MCF7 breast
A498 renal = system: A498 renal
NCI-H226 lung = system: NCI-H226 lung
MOLT-4 leukemia = system: MOLT-4 leukemia
HL-60(TB) leukemia = system: HL-60(TB) leukemia
HOP-92 NSCLC = system: HOP-92 NSCLC
SN12C renal = system: SN12C renal
IGROV1 ovarian = system: IGROV1 ovarian

Compound: COc1cc2c[n+](C)c3c4cc(OC)c(OC)cc4c(OC)cc3c2cc1OC
- TGI (KM12 colon): > 67.1 µM
- TGI (RPMI-8226 leukemia): > 100 µM
- TGI (CAKI-1 renal): > 100 µM
- TGI (SNB-75 CNS): > 95.1 µM
- TGI (OVCAR-3 ovarian): > 34.6 µM
- TGI (MDA-MB-435): > 60.4 µM
- TGI (HT29 colon): > 46.7 µM
- TGI (ACHN renal): > 100 µM
- TGI (MALME-3M melanoma): 9.44 µM
- TGI (SK-OV-3 ovarian): > 100 µM
- TGI (NCI-H522 lung): 2.03 µM
- TGI (SNB-19 CNS): > 100 µM
- TGI (786-0 renal): > 74.6 µM
- TGI (NCI/ADR-RES ovarian): > 100 µM
- TGI (T-47D breast): 12.2 µM
- TGI (RXF 393 renal): > 100 µM
- TGI (COLO 205 colon): 4.41 µM
- TGI (NCI-H460 lung): > 100 µM
- TGI (HCT-116 colon): > 43.6 µM
- TGI (SF-539 CNS): > 100 µM
- TGI (U251 CNS): > 51.8 µM
- TGI (HCT-15 colon): > 100 µM
- TGI (LOX IMVI melanoma): > 76.5 µM
- TGI (MDA-N): > 45.9 µM
- TGI (K-562 leukemia): > 41.5 µM
- TGI (BT-549 breast): 57 µM
- TGI (EKVX NSCLC): > 100 µM
- TGI (M14 melanoma): > 100 µM
- TGI (PC-3 prostate): 98.9 µM
- TGI (SK-MEL-5 melanoma): 14.9 µM
- TGI (TK-10 renal): > 100 µM
- TGI (UACC-257 melanoma): 18.3 µM
- TGI (SK-MEL-2 melanoma): > 86 µM
- TGI (UACC-62 melanoma): > 100 µM
- TGI (OVCAR-5 ovarian): > 100 µM
- TGI (SK-MEL-28 melanoma): > 81.9 µM
- TGI (UO-31 renal): > 100 µM
- TGI (A549 NSCLC): > 100 µM
- TGI (SF-295 CNS): > 100 µM
- TGI (SF-268 CNS): 18.7 µM
- TGI (SW-620 colon): > 100 µM
- TGI (OVCAR-8 ovarian): 23 µM
- TGI (NCI-H23 lung): 36.8 µM
- TGI (CCRF-CEM leukemia): > 100 µM
- TGI (HS 578T breast): 12.6 µM
- TGI (DU-145 prostate): > 65.3 µM
- TGI (HCC-2998 colon): > 52.1 µM
- TGI (HOP-62 NSCLC): > 100 µM
- TGI (OVCAR-4 ovarian): > 69.5 µM
- TGI (MDA-MB-231 breast): 19.8 µM
- TGI (MCF7 breast): > 100 µM
- TGI (A498 renal): > 100 µM

Compound: CC1(C)CC(=O)C(CCC(=O)/C=C/c2ccccc2)C(=O)C1
- TGI (KM12 colon): > 100 µM
- TGI (RPMI-8226 leukemia): > 100 µM
- TGI (CAKI-1 renal): > 100 µM
- TGI (SNB-75 CNS): > 100 µM
- TGI (OVCAR-3 ovarian): > 100 µM
- TGI (MDA-MB-435): > 100 µM
- TGI (HT29 colon): > 100 µM
- TGI (ACHN renal): > 100 µM
- TGI (MALME-3M melanoma): > 100 µM
- TGI (SK-OV-3 ovarian): > 100 µM
- TGI (NCI-H522 lung): > 100 µM
- TGI (SNB-19 CNS): > 100 µM
- TGI (786-0 renal): > 100 µM
- TGI (NCI/ADR-RES ovarian): > 100 µM
- TGI (T-47D breast): > 100 µM
- TGI (RXF 393 renal): > 100 µM
- TGI (COLO 205 colon): > 100 µM
- TGI (NCI-H460 lung): > 100 µM
- TGI (HCT-116 colon): > 100 µM
- TGI (SF-539 CNS): > 100 µM
- TGI (U251 CNS): > 100 µM
- TGI (HCT-15 colon): > 100 µM
- TGI (NCI-H226 lung): > 100 µM
- TGI (LOX IMVI melanoma): > 100 µM
- TGI (MDA-N): > 100 µM
- TGI (K-562 leukemia): > 100 µM
- TGI (BT-549 breast): > 100 µM
- TGI (EKVX NSCLC): > 100 µM
- TGI (M14 melanoma): > 100 µM
- TGI (PC-3 prostate): > 100 µM
- TGI (SK-MEL-5 melanoma): > 100 µM
- TGI (TK-10 renal): > 100 µM
- TGI (UACC-257 melanoma): > 100 µM
- TGI (SK-MEL-2 melanoma): > 100 µM
- TGI (UACC-62 melanoma): > 100 µM
- TGI (OVCAR-5 ovarian): > 100 µM
- TGI (SK-MEL-28 melanoma): > 100 µM
- TGI (UO-31 renal): > 100 µM
- TGI (A549 NSCLC): > 100 µM
- TGI (SF-295 CNS): > 100 µM
- TGI (MOLT-4 leukemia): > 100 µM
- TGI (HL-60(TB) leukemia): > 100 µM
- TGI (SF-268 CNS): > 100 µM
- TGI (HOP-92 NSCLC): > 100 µM
- TGI (SW-620 colon): > 100 µM
- TGI (OVCAR-8 ovarian): > 100 µM
- TGI (NCI-H23 lung): > 100 µM
- TGI (SN12C renal): > 100 µM
- TGI (CCRF-CEM leukemia): > 100 µM
- TGI (HS 578T breast): > 100 µM
- TGI (IGROV1 ovarian): > 100 µM
- TGI (DU-145 prostate): > 100 µM
- TGI (HCC-2998 colon): > 100 µM
- TGI (HOP-62 NSCLC): > 100 µM
- TGI (OVCAR-4 ovarian): > 100 µM
- TGI (MDA-MB-231 breast): > 100 µM
- TGI (MCF7 breast): > 100 µM
- TGI (A498 renal): > 100 µM
